Patent publication US20100298376A1, “USE OF NOVEL NEUROPROTECTIVE 3-SUBSTITUTED INDOLONE COMPOSITIONS” (BOARD OF REGENTS, THE UNIVERSITY OF TEXAS SYSTEM, priority 2009, published 2010)
Several values for one entry are separate records, joined by “and”; a condition that tells them apart may be missing. Equal entries are not always repeated. Where two headings read alike, the source gives them in different places.

Tests used:
[1] = system: cerebellar granule neurons; details: for % neuronal survival Mean ± SD: 24 hours, percent of HK control
Experimental: These compounds were analyzed for their neuroprotective activity in vitro. Granule neuron cultures were obtained from dissociated cerebella of 7-8 day old Wistar rats as known to one of ordinary skill in the art. Cells were plated in Basal Eagle's Medium with Earles salts (BME) supplemented with 10% fetal calf serum (FCS), 25 mM KCl, 2 mM glutamine (Invitrogen), and 100 μg/ml gentamycin on dishes (Nunc) coated with poly-L-lysine in 24-well dishes at a density 1×10^6 cells/well. Cytosine arabinofuranoside (10 μM) was added to the culture medium 18-22 hours after plating to prevent replication of non-neuronal cells that yields highly pure culture of granule neurons. The neuronal cultures were maintained for 7-8 days prior to treatments.
This experimental model of neuronal apoptosis has been used widely used to understand the molecular mechanisms underlying neurodegeneration and to identify biological and chemical agents with neuroprotective efficacy. For this, the cells were rinsed once and then maintained in low K^+ medium (serum-free BME medium, 5 mM KCl; referred to as LK), or in the case of control cultures, in high K^+ medium (serum-free BME medium, supplemented with 20 mM KCl; referred to as HK). Each compound was tested at three different concentrations of 1 μM, 5 μM, and 25 μM. The 25 μM concentration was included to evaluate neurotoxicity. For treatments, the chemical compounds (dissolved in dimethylsulfoxide) were added directly to LK medium at the time of the switch from HK at concentrations of 1 μM, 5 μM, or 25 μM. Viability was assessed 24 hours later. Each compound was tested in duplicate (at each of the concentrations) and the experiment repeated at least 3 times. Although all compounds were solubilized in dimethylsulfoxide (DMSO), the amount of DMSO in the cultures never exceeded 0.1% (v/v).
The viability status of neuronal cultures treated with HK, LK, or LK medium supplemented with various compounds was evaluated by phase contrast microscopy and quantified by staining cell nuclei with 4′,6′-diamidino2-phenylindole hydrochloride (DAPI). Briefly, the cells were fixed in 4% paraformaldehyde for 20 minutes at 4′C. After washing in phosphate buffered saline, DAPI (1 μg/ml in phosphate buffered saline) was added for 15 min at room-temperature and viewed under ultraviolet light (260 nm). Cells with condensed or fragmented nuclei were scored as dead. […] Statistical analysis was performed using an unpaired, two-tailed Student's t test, compared to mean neuronal survival of control cultures receiving LK treatment and the quantitative data are presented in Tables 1 and 2 for each compound.

[2] = Z/E isomer stability in DMSO-d6 by NMR; assay type: physicochemical; details: 6 hours from mixing
[3] = Solubility in the culture medium; details: 25 μM
[4] = system: cerebellar granule neurons; assay: TUNEL and active caspase-3 immunoreactivity in neuronal cultures (FIG. 1); assay type: cell-based, Wistar rats; details: Compound 31 at 1 μm, compared with Compounds 7, 37 and 39, 24 hours
Description: FIG. 1 is a photograph illustrating the qualitative neuroprotective effects of Compound 7 (5 μm), Compound 31 (1 μm), Compound 37 (25 μm) and Compound 39 (25 lam) are illustrated presented in the figure. From left to right columns show phase-contrast micrographs of neuronal morphology, DAPI staining of nuclei showing fragmented nuclei, TUNEL staining also showing fragmented DNA, and active caspase-3 immunoreactivity highly indicative of apoptosis. DAPI and TUNEL panels are taken from the same fields.
The TUNEL assay of neuronal cultures was performed 24 hours after treatment of the cultures using DEADEND™ Fluorometric TUNEL System from Promega (Madison, Wis.) according to the manufacturer's instructions. For immunocytochemical analysis of active caspase 3, neuronal cultures cells were fixed and treated with 0.2% Triton for 5 minutes. After blocking with PBS containing 5% BSA and 5% goat serum in PBS for 30 minutes, the coverslips were incubated with the active capase-3 primary antibody overnight at 4° C. After three washes with phosphate-buffered saline (PBS), the cells were incubated with secondary antibodies for 45 minutes at 25° C. after which the cells were washed with PBS. To visualize nuclei, cells were stained with DAPI for 15 minutes at 25° C.

[5] = LK medium, concentration not specified
[6] = at 1 μM and 5 μM (two lower concentrations)

Row | Compound | neuroprotective activity (in words) [1, 5] | % neuronal survival Mean ± SD ([1]; Table 1, 1 μM in LK medium) | % neuronal survival Mean ± SD ([1]; Table 1, 5 μM in LK medium) | % neuronal survival Mean ± SD ([1]; Table 1, 25 μM in LK medium) | % neuronal survival Mean ± SD ([1]; Table 2, 1 μM in LK medium) | % neuronal survival Mean ± SD ([1]; Table 2, 5 μM in LK medium) | % neuronal survival Mean ± SD ([1]; Table 2, 25 μM in LK medium) | other results
1 | O=C1Nc2ccccc2/C1=C\c1cc(Br)c(O)c(Br)c1 [Compound 1, (E)-3-(3′,5′-Dibromo-4′-hydroxybenzylidene)indolin-2-one] | moderately effective | 69.7 ± 2.19 % | 88.4 ± 11.74 % | 84.6 ± 7.57 % | – | – | – | neurotoxicity (in words) [1]: not toxic; percent of Z configuration after 6 hours [2]: 50%
2 | O=C1Nc2ccc(Cl)cc2/C1=C\c1cc(Br)c(O)c(Br)c1 [Compound 7, (E)-3-(3′,5′-Dibromo-4-hydroxybenzylidene)-5-chlorondolin-2-one] | – | 84.3 ± 1.04 % | 91.9% and 91.9 ± 5.31 % | 81.8 ± 14.94 % | – | – | – | neurotoxicity (in words) [1]: not toxic; neuroprotective activity (in words) ([1]; at 5 μM): highly effective; percent of Z configuration after 6 hours [2]: 70%
3 | O=C1Nc2ccc(Br)cc2/C1=C\c1cc(Br)c(O)c(Br)c1 [Compound 16, (E)-5-Bromo-3-(3′,5′-dibromo-4-hydroxybenzylidene)indolin-2-one] | superior to Compound 1 | 88.4 ± 0.71 % | 98.7% and 98.7 ± 3.85 % | – | – | – | – | neurotoxicity (in words) [1]: not toxic; neuroprotective activity (in words) [1, 6]: highly protective; neuroprotective activity (in words) ([1]; at 5 μM): highly effective; percent of Z configuration after 6 hours [2]: 80%; solubility in the culture medium (in words) [3]: not completely soluble
4 | O=C1Nc2ccc([N+](=O)[O-])cc2/C1=C/c1cc(Br)c(O)c(Br)c1 [Compound 21, (Z)-3-(3′,5′-Dibromo-4-hydroxybenzylidene)-5-nitroindolin-2-one] | superior to Compound 1 | 79.9 ± 12.81% | 78.4 ± 31.66% | 71.3 ± 19.80% | – | – | – | percent of Z configuration after 6 hours [2]: 70%
5 | O=C1Nc2ccc(F)cc2/C1=C\c1cc(Br)cc(Br)c1 [Compound 31, (E)-3-(3′,5′-Dibromobenzylidene)-5-fluoroindolin-2-one] | lack of neuroprotective activity | 38.4 ± 6.24% | 46.1 ± 4.00% | 48.1 ± 14.65% | – | – | – | TUNEL and active caspase-3 immunoreactivity (in words) [4]: greater TUNEL and active caspase-3 immunoreactivity
6 | O=C1Nc2ccc(F)cc2/C1=C\c1ccccc1 [Compound 33, (E)-3-Benzylidene-5-fluoroindolin-2-one] | not effective | 53.4 ± 2.12% | 51.9 ± 15.56% | 31.5 ± 17.51% | – | – | – | –
7 | CC(=O)c1ccc2c(c1)/C(=C/c1cc(Br)c(O)c(Br)c1)C(=O)N2 [Compound 34, (Z)-5-Acetyl-3-(3′,5′-dibromo-4′-hydroxybenzylidene)indolin-2-one] | superior to Compound 1 | 96.8% and 96.8 ± 6.15 % | 110.3% and 110.3 ± 8.50 % | 2.2 ± 1.63 % | – | – | – | neuroprotective activity (in words) [1, 6]: impressive neuroprotection
8 | O=C1Nc2ccccc2/C1=C/c1ccc[nH]1 [Compound 35] | – | – | – | – | 56.0 ± 17.21% | 51.1 ± 7.06% | 3.88 ± 9.58 % | –
9 | O=C1Nc2ccc(Cl)cc2/C1=C/c1ccc[nH]1 [Compound 36] | moderate protective activity | – | – | – | 71.2 ± 0.02 % | 84.0 ± 16.97 % | 82.6 ± 10.18 % | –
10 | CC(=O)c1ccc2c(c1)/C(=C/c1ccc[nH]1)C(=O)N2 [Compound 38] | moderate protective activity | – | – | – | 69.5 ± 12.61% | 87.3 ± 22.50% | 87.1 ± 24.50% | –
11 | O=C1Nc2ccc([N+](=O)[O-])cc2/C1=C/c1ccc[nH]1 [Compound 39] | – | – | – | – | 84.4 ± 3.41 % | 90.1 ± 6.55 % | 87.9 ± 1.40 % | –
12 | O=C1Nc2ccc(F)cc2/C1=C/c1ccc[nH]1 [Compound 40] | highest neuroprotective activity | – | – | – | 58.4 ± 3.98% | 65.7 ± 0.07% | 96.6 ± 1.91 % | neuroprotective activity (in words) ([1]; at 25 μM / high doses): the most effective one
13 | O=C1Nc2ccccc2/C1=C/c1cccs1 [Compound 41, (Z)-3-(Thien-2′-ylmethylene)indolin-2-one] | – | – | – | – | 68.3 ± 13.16% | 77.1 ± 13.16% | 86.2 ± 4.03 % | neuroprotective activity (in words) ([1]; at 25 μM / high doses): moderately active
14 | O=C1Nc2ccc([N+](=O)[O-])cc2/C1=C/c1cccs1 [Compound 42, (Z)-5-Nitro-3-(thien-2′-ylmethylene)indolin-2-one] | – | – | – | – | 75.1 ± 9.11 % | 67.6 ± 2.29% | 66.9 ± 10.30% | –
15 | O=C1Nc2ccc(F)cc2/C1=C/c1cccs1 [Compound 44, (Z)-5-Fluoro-3-(thien-2′-ylmethylene)indolin-2-one] | low protection | – | – | – | 53.6 ± 14.24% | 60.1 ± 10.28% | 68.7 ± 9.35% | –
16 | O=C1Nc2ccccc2/C1=C\c1ccco1 [Compound 45, (E)-3-(Furan-2′-ylmethylene)indoline-2-one] | excellent activity | – | – | – | 70.4 ± 8.35% | 82.8 ± 5.22 % | 90.2 ± 3.91 % | –
17 | (Z)-5-Bromo (3-(1H-pyrrol-2′-yl)methylene)indolin-2-one [Compound 37] | one of the most potent effective neuroprotective agents discovered | – | – | – | 75.5 ± 14.58% | 94.2 ± 0.15 % | 93.0 ± 1.38 % | –
18 | (Z)-5-Bromo-3-(thien-2′-ylmethylene)indolin-2-one [Compound 43] | – | – | – | – | 56.8 ± 5.62% | 58.3 ± 9.82% | 66.4 ± 4.56% | –
